The values that follow come from article PMC4701951, “Characterization of a New M13 Metallopeptidase from Deep-Sea Shewanella sp. E525-6 and Mechanistic Insight into Its Catalysis” (Frontiers in Microbiology, 2016).

The assay concerns the target T1, PepS (Shewanella sp. E525-6, UniProt A0A140CQI1).
T1 construct: mature N-terminus L17-T-A-C-N21 (16-residue signal peptide removed)
T1 sequence (A0A140CQI1 17-694): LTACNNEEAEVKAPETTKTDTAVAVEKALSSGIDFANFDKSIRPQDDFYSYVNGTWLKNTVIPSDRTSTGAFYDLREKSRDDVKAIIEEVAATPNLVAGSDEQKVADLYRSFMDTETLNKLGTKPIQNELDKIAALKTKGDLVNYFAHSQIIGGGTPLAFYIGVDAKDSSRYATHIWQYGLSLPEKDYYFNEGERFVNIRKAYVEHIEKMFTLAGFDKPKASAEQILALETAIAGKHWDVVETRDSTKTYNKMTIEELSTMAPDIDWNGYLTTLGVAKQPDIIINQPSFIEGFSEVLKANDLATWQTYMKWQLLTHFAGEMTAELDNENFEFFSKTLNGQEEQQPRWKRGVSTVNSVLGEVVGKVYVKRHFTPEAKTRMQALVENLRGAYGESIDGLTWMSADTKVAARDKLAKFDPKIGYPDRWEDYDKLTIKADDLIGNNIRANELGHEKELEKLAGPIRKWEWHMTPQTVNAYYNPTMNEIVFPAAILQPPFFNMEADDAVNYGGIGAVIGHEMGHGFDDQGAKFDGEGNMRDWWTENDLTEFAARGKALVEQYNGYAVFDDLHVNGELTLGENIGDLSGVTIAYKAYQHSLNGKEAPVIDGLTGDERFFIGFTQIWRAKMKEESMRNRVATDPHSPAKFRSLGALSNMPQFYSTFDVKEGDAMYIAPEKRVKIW
Kind of assay: residual peptidase activity, HPLC of product FSP. In kind it is biochemical. From the text:
residual peptidase activity, HPLC of product FSP on PepS

SMILES strings stand for the structures.

As a reminder, the remaining activity is the signal under treatment as a percentage of the control signal. The low end stands for little activity left, the high end for much activity left.

Compound `CC(C)C[C@H](NP(=O)(O)O[C@@H]1O[C@@H](C)[C@H](O)[C@@H](O)[C@H]1O)C(=O)N[C@@H](Cc1c[nH]c2ccccc12)C(=O)O` [Phosphoramidon] yielded a remaining activity at 10 µM of 4.3 ± 0.4%.
